# Biological target: PSMA (Homo sapiens, UniProt Q04609)
# Experiment: PSMA binding, fluorescence polarization assay
# Conditions: as shown in Table 1
# Protocol: PSMA binding was measured using the fluorescence polarization assay methodology described in Shen et al (2013) PLOS ONE 8(7), […] and PSMA enzyme inhibition was measured using the methodology described in WO 2009/070302.
# The peptide ligands of the invention were tested in the above mentioned PSMA binding and enzyme inhibition assays and the results are shown in Table 1: […]
# PSMA, sequence (Q04609 whole entry): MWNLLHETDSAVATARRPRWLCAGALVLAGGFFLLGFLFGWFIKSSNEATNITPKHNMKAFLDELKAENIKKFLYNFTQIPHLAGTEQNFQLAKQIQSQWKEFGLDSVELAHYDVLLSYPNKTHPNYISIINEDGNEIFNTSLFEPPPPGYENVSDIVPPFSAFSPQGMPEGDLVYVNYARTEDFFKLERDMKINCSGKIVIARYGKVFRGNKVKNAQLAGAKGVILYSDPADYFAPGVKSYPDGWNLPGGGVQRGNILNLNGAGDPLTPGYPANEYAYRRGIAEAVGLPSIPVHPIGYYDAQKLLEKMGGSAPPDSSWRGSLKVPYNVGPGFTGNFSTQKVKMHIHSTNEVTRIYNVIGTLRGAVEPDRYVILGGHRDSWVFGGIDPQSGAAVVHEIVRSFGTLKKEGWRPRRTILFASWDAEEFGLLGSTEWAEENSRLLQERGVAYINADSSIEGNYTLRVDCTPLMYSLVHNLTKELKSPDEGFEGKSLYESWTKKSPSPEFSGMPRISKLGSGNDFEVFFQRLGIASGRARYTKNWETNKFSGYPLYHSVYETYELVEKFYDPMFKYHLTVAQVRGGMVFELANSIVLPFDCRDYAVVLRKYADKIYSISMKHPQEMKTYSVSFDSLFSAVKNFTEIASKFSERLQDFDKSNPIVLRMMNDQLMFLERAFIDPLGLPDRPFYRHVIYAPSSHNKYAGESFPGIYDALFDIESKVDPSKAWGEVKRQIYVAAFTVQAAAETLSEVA
row,Substance,PSMA binding (statement in words)
1,LCMECYMMEDGTCA [21-31-12-T01-N001],superior PSMA binding
2,Ac-(D-E)VCWDCFM(Nle)EDGTCA-Sar6-(D-K) [21-31-04-T01-N009],superior PSMA binding
3,FCSECYMMEDGTCA [21-31-11-T01-N001],superior PSMA binding
4,EVCWDCFMMEDGTCA [21-31-04-T01-N001],superior PSMA binding

# — US12377155B2, “Bicyclic peptide ligands specific for PSMA” (BicycleRD Limited, priority 2018, dated 2025)
